Measured values from publication PMC5267425, “Identification of small molecule modulators of HIV-1 Tat and Rev protein accumulation” (Retrovirology, 2017).
Where “and” joins values, the source holds several entries; their conditions need not be identical. Equal values may be shown once.

Tested on: cellular gene expression in HeLa rtTA HIV∆Mls cells
Details: 9147791-treated cells, two replicates

## Cc1cc(NCc2cccnc2)n2ncc(-c3ccc(Cl)cc3)c2n1 [Compound 791, 3-(4-chlorophenyl)-5-methyl-N-(3-pyridinylmethyl)pyrazolo[1,5-a]pyrimidin-7-amine]
Gene ACER2
  ACER2 expression level: 0.80 and 0.82
Gene ADO
  ADO expression level: 10.11 and 9.67
Gene AKIRIN2
  AKIRIN2 expression level: 37.74 and 36.76
Gene ALG5
  ALG5 expression level: 17.63 and 17.19
Gene ALKBH8
  ALKBH8 expression level: 2.78 and 2.65
Gene ANKRD40
  ANKRD40 expression level: 18.60 and 17.61
Gene ANKRD50
  ANKRD50 expression level: 8.61 and 9.09
Gene AP3S2
  AP3S2 expression level: 6.99 and 6.84
Gene ARL4D
  ARL4D expression level: 11.90 and 11.09
Gene ARMC10
  ARMC10 expression level: 25.33 and 26.90
Gene ARSJ
  ARSJ expression level: 5.86 and 6.05
Gene ATG4B
  ATG4B expression level: 24.43 and 25.27
Gene ATP6V1B2
  ATP6V1B2 expression level: 44.15 and 44.20
Gene AUP1
  AUP1 expression level: 93.65 and 90.36
Gene AVL9
  AVL9 expression level: 14.40 and 14.91
Gene AXIN1
  AXIN1 expression level: 20.61 and 19.36
Gene B4GALT5
  B4GALT5 expression level: 32.71 and 30.46
Gene BCL7A
  BCL7A expression level: 4.81 and 5.05
Gene BICD1
  BICD1 expression level: 5.82 and 5.80
Gene BIVM
  BIVM expression level: 26.38 and 27.51
Gene BMP2K
  BMP2K expression level: 8.20 and 7.95
Gene C1orf27
  C1orf27 expression level: 10.72 and 10.90
Gene C1orf103
  C1orf103 expression level: 11.43 and 11.72
Gene C1orf131
  C1orf131 expression level: 8.80 and 9.06
Gene C2orf49
  C2orf49 expression level: 7.96 and 8.04
Gene C3orf19
  C3orf19 expression level: 6.85 and 6.46
Gene C4orf27
  C4orf27 expression level: 19.50 and 20.20
Gene C5orf37
  C5orf37 expression level: 8.35 and 8.03
Gene C5orf45
  C5orf45 expression level: 14.96 and 13.97
Gene C5orf51
  C5orf51 expression level: 28.44 and 30.27
Gene C7orf23
  C7orf23 expression level: 28.60 and 29.63
Gene C7orf25
  C7orf25 expression level: 13.24 and 13.90
Gene C9orf6
  C9orf6 expression level: 11.84 and 11.91
Gene C9orf46
  C9orf46 expression level: 19.83 and 20.30
Gene C11orf57
  C11orf57 expression level: 12.07 and 11.50
Gene C11orf73
  C11orf73 expression level: 35.63 and 36.75
Gene C12orf35
  C12orf35 expression level: 5.77 and 5.55
Gene C12orf65
  C12orf65 expression level: 14.51 and 14.73
Gene C12orf73
  C12orf73 expression level: 7.32 and 7.68
Gene C13orf23
  C13orf23 expression level: 12.32 and 12.36
Gene C16orf72
  C16orf72 expression level: 10.69 and 10.57
Gene C17orf80
  C17orf80 expression level: 10.34 and 10.65
Gene C18orf25
  C18orf25 expression level: 6.56 and 6.86
Gene C18orf45
  C18orf45 expression level: 4.86 and 5.04
Gene C19orf55
  C19orf55 expression level: 5.99 and 6.29
Gene CCBL2
  CCBL2 expression level: 14.25 and 13.62
Gene CCDC25
  CCDC25 expression level: 31.76 and 30.83
Gene CCDC92
  CCDC92 expression level: 12.03 and 11.64
Gene CCNJ
  CCNJ expression level: 2.94 and 2.91
Gene CDK4
  CDK4 expression level: 162.09 and 164.93
Gene CDK17
  CDK17 expression level: 8.04 and 8.39
Gene CHCHD4
  CHCHD4 expression level: 19.84 and 19.36
Gene CHN2
  CHN2 expression level: 1.42 and 1.50
Gene CLCN2
  CLCN2 expression level: 5.16 and 5.28
Gene COG1
  COG1 expression level: 10.28 and 10.86
Gene COX19
  COX19 expression level: 6.58 and 7.00
Gene CREB1
  CREB1 expression level: 5.06 and 4.95
Gene CSGALNACT2
  CSGALNACT2 expression level: 10.98 and 11.46
Gene CSNK2A1
  CSNK2A1 expression level: 37.86 and 40.21
Gene CSRNP2
  CSRNP2 expression level: 6.76 and 6.32
Gene CUEDC2
  CUEDC2 expression level: 42.63 and 44.50
Gene DCI
  DCI expression level: 60.10 and 62.67
Gene DCLRE1A
  DCLRE1A expression level: 9.19 and 9.37
Gene DDB2
  DDB2 expression level: 110.42 and 109.59
Gene DDX50
  DDX50 expression level: 29.08 and 28.13
Gene DENND4B
  DENND4B expression level: 17.80 and 17.11
Gene DET1
  DET1 expression level: 3.28 and 3.58
Gene DGKQ
  DGKQ expression level: 6.10 and 5.97
Gene DLG4
  DLG4 expression level: 6.58 and 6.74
Gene DNAJB14
  DNAJB14 expression level: 5.32 and 5.63
Gene DNASE2
  DNASE2 expression level: 67.31 and 73.16
Gene DYM
  DYM expression level: 17.92 and 17.95
Gene EDEM1
  EDEM1 expression level: 13.02 and 13.54
Gene EIF2S3
  EIF2S3 expression level: 260.44 and 268.10
Gene EPRS
  EPRS expression level: 87.21 and 89.05
Gene ESCO1
  ESCO1 expression level: 5.82 and 5.63
Gene ESRRA
  ESRRA expression level: 58.60 and 54.56
Gene ETV6
  ETV6 expression level: 3.21 and 3.17
Gene FAIM3
  FAIM3 expression level: 2.34 and 2.22
Gene FAM83G
  FAM83G expression level: 15.73 and 15.43
Gene FAM102A
  FAM102A expression level: 15.44 and 14.97
Gene FAM107B
  FAM107B expression level: 26.06 and 26.60
Gene FAM119B
  FAM119B expression level: 5.44 and 5.43
Gene FAM176B
  FAM176B expression level: 1.37 and 1.42
Gene FAM179B
  FAM179B expression level: 3.35 and 3.46
Gene FAR1
  FAR1 expression level: 21.55 and 22.22
Gene FBXO22
  FBXO22 expression level: 18.71 and 19.58
Gene FBXW4
  FBXW4 expression level: 11.10 and 10.83
Gene FEM1C
  FEM1C expression level: 5.87 and 6.20
Gene FEZ2
  FEZ2 expression level: 28.49 and 26.84
Gene FLCN
  FLCN expression level: 15.28 and 15.93
Gene FLYWCH1
  FLYWCH1 expression level: 20.36 and 21.57
Gene FOSL2
  FOSL2 expression level: 35.73 and 35.26
Gene FOXF1
  FOXF1 expression level: 7.56 and 7.55
Gene FOXJ2
  FOXJ2 expression level: 9.27 and 9.86
Gene FXYD5
  FXYD5 expression level: 112.40 and 117.32
Gene GATA5
  GATA5 expression level: 1.79 and 1.70
Gene GJD3
  GJD3 expression level: 4.71 and 4.56
Gene GNA13
  GNA13 expression level: 17.15 and 16.92
Gene GORAB
  GORAB expression level: 7.75 and 7.67
Gene GOSR1
  GOSR1 expression level: 11.79 and 11.45
Gene GPC5
  GPC5 expression level: 9.86 and 10.11
Gene GPD1L
  GPD1L expression level: 13.45 and 13.69
Gene GTF2H3
  GTF2H3 expression level: 21.55 and 22.21
Gene HAUS3
  HAUS3 expression level: 7.54 and 8.11
Gene HAUS4
  HAUS4 expression level: 59.72 and 63.77
Gene HDHD2
  HDHD2 expression level: 9.17 and 8.71
Gene HECTD1
  HECTD1 expression level: 31.75 and 32.77
Gene HIF1A
  HIF1A expression level: 79.76 and 77.72
Gene HPS3
  HPS3 expression level: 15.09 and 14.61
Gene HRSP12
  HRSP12 expression level: 13.91 and 14.84
Gene HSD17B1
  HSD17B1 expression level: 4.57 and 4.64
Gene IFNGR1
  IFNGR1 expression level: 18.57 and 18.18
Gene INPP1
  INPP1 expression level: 8.36 and 7.77
Gene IPO13
  IPO13 expression level: 15.99 and 16.09
Gene IQCB1
  IQCB1 expression level: 10.15 and 11.00
Gene KCTD1
  KCTD1 expression level: 4.57 and 4.58
Gene KCTD13
  KCTD13 expression level: 10.32 and 11.29
Gene KIAA0232
  KIAA0232 expression level: 9.33 and 9.86
Gene KIAA0649
  KIAA0649 expression level: 25.63 and 26.16
Gene KIAA0753
  KIAA0753 expression level: 6.64 and 6.86
Gene KRR1
  KRR1 expression level: 19.83 and 18.92
Gene LARS
  LARS expression level: 72.55 and 69.28
Gene LGTN
  LGTN expression level: 39.45 and 39.33
Gene LRP5L
  LRP5L expression level: 3.26 and 3.08
Gene LRPPRC
  LRPPRC expression level: 66.45 and 68.25
